{"source": "patent US8222278B2", "about": "“Treatment of attention-deficit/hyperactivity disorder” (Abbott Laboratories, priority 2008, dated 2012)", "key": {"adults with ADHD [1]": {"tested_on": "adults with ADHD", "experiment": "Study A: patient-reported health outcomes (AAQoL, WPAI)", "assay_type": "in vivo, human", "design": "WPAI Absenteeism (employed), Mean Diff. / WPAI Impaired Work Effectiveness (employed), Mean Diff. / AAQoL Total, Mean Diff. / WPAI Overall Activity Impairment (all), Mean Diff. / WPAI Overall Work Impairment (employed), Mean Diff.: scale not given here", "conditions": "ATX 40 mg BID", "description": "(§1) A clinical study (Study A) was conducted to assess the safety and efficacy of ABT-894 compared to placebo in adults with ADHD and to evaluate the dose-response relationship.\n(§2) Subjects in each dose group received, in random order, both ABT-894 and placebo according to a 2×2 crossover design. Each treatment period was 4 weeks separated by a 2-week washout period.\n(§3) Secondary efficacy endpoints included the CAARS:Inv Inattentive and Hyperactive/Impulsive Subscale Scores, Clinical Global Impression-ADHD-Severity Scale (CGI-ADHD-S). Adult ADHD Investigator Symptom Report Scale (AISRS), including total and subscales, and the Self-rated Connors Adult ADHD Rating Scale (CAARS-Self). Health outcomes including the Adult ADHD Quality of Life Scale (AAQoL) and Work Productivity and Activity Impairment Questionnaire (WPAI) were used to evaluate the validity of these scales in this study population for use in subsequent clinical trials."}, "adults with ADHD [2]": {"tested_on": "adults with ADHD", "experiment": "Study A: weight and vital signs", "assay_type": "in vivo, human", "conditions": "Atomoxetine 40 mg BID, final evaluation (LOCF)", "description": "The treatment group differences in vital signs were analyzed using a Grizzle Model similar to the model used for the efficacy analyses with the exclusion of period-specific baselines."}, "adults with ADHD [3]": {"tested_on": "adults with ADHD", "experiment": "Study A: treatment-emergent adverse events (safety dataset)", "conditions": "Atomoxetine 40 mg BID, N = 50", "procedure": "During each visit, blood pressure, heart rate, weight, medication accountability and tolerability, and adverse effects were assessed.\nThe safety dataset consisted of all subjects who took at least one dose of study drug. The reasons for discontinuation and the treatment-emergent adverse events were summarized by the treatment under which the discontinuation or event was reported.\nTreatment-emergent adverse events were those that began or worsened following the first dose of study drug in Period 1. Adverse event monitoring was conducted at each study visit and until 30 days following discontinuation of study drug. Other routine safety assessments included vital signs, electrocardiograms, physical examinations, brief neurological examinations and laboratory tests."}, "adults with ADHD [4]": {"tested_on": "adults with ADHD", "experiment": "Study A: ABT-894 Adult ADHD Dose-Ranging crossover clinical study, efficacy rating scales", "assay_type": "in vivo, human", "conditions": "Atomoxetine 40 mg BID", "description": "as §1\nA total of 243 subjects aged 18 to 60 years old meeting DSM-IV-TR criteria for ADHD were randomized across the 5 dose groups. Male or female patients were included. […] The disposition of the study subjects is further discussed with the study results below.\nas §2\nEach site was assigned to one of two cohorts (Cohort A or Cohort B) in approximately a 3:2 ratio. Subjects in Cohort A were randomized in equal proportions to one of 6 treatment sequences in 3 dose groups, and subjects in Cohort B were randomized in equal proportions to one of 4 treatment sequences in 2 dose groups, as shown in Table 1. Within each dose group subjects received either ABT-894 or atomoxetine in Period 1 and placebo in Period 2, or placebo in Period 1 and ABT-894 or atomoxetine in Period 2.\nThe study medication was dispensed in the form of a capsule. Each capsule contained ABT-894, atomoxetine, or placebo. The capsules were made to look identical.\nThe primary efficacy endpoint was the Conners' Adult ADHD Rating Scale—Investigator Rated (CAARS:Inv) Total Score (18 items) at the final evaluation of each 4-week treatment period. The CAARS:Inv was assessed at baseline and Days 7. 14. 21, and 28 of each period. Each CAARS:Inv item was rated on a 4-point scale of frequency of occurrence (0=not at all, never; 3=very much. very frequently) during the previous 7 days.\nas §3\nThe primary analysis was performed on each dose group separately according to the Statistical Analysis Plan (SAP). The primary statistical model that was used for analyzing the primary efficacy variable, the CAARS:INV total score, and all other secondary efficacy variables was determined by a SAP specified testing procedure. The comparability between two sequences for a given dose group with respect to the difference between period-specific baselines was tested using a one-way ANCOVA with the term of treatment and the Period I baseline as the covariate at the significance level of 0.10. The equal residual effect from Period I to Period II between two different sequences for a given dose group was tested using a standard model for cross-over data analysis, Grizzle model, on the term of “sequence” at the significance level of 0.10.\nAfter the study blind was broken, across 5 dose groups. all the tests accepted the null hypothesis that there was no statistically significant treatment effect for the differences between the period-specific baselines. The tests also accepted the null hypothesis that there was no period residual effect in any of the dose groups. Accordingly, the Grizzle model was used as the primary analysis model to analyze treatment group difference for CAARS:INV total score at Day 28 for each dose group. The Grizzle Model was carried out by SAS PROC Mixed with the terms of study center. sequence, subjects within sequence, period, treatment, as well as period-specific baselines as covariates.\nThe primary efficacy dataset included all subjects who completed both periods of the study (completers dataset). […]"}}}
{"smiles": "CNCC[C@@H](Oc1ccccc1C)c1ccccc1", "note": "[Atomoxetine, (3R)-N-methyl-3-(2-methylphenoxy)-3-phenyl-propan-1-amine, reference compound]", "values": [{"measurement": "WPAI Absenteeism (employed), Mean Diff.", "setting": "adults with ADHD [1]; N 18", "result": 0.019}, {"measurement": "WPAI Impaired Work Effectiveness (employed), Mean Diff.", "setting": "adults with ADHD [1]; N 18", "result": "−0.143"}, {"measurement": "WPAI Overall Work Impairment (employed), Mean Diff.", "setting": "adults with ADHD [1]; N 18", "result": "−0.12"}, {"measurement": "WPAI Overall Activity Impairment (all), Mean Diff.", "setting": "adults with ADHD [1]; N 36", "result": "−0.13"}, {"measurement": "AAQoL Total, Mean Diff.", "setting": "adults with ADHD [1]; N 40", "result": 7.23}, {"measurement": "Diastolic BP, mean difference from placebo", "setting": "adults with ADHD [2]", "result": 0.72, "unit": "mm Hg"}, {"measurement": "Pulse, mean difference from placebo", "setting": "adults with ADHD [2]", "result": 4.74, "unit": "bpm"}, {"measurement": "Systolic BP, mean difference from placebo", "setting": "adults with ADHD [2]", "result": 1.16, "unit": "mm Hg"}, {"measurement": "Weight, mean difference from placebo", "setting": "adults with ADHD [2]", "result": -0.73, "unit": "kg"}, {"measurement": "Any Adverse Event, % of subjects", "setting": "adults with ADHD [3]", "result": "(82.0) %"}, {"measurement": "Any Adverse Event, number of subjects", "setting": "adults with ADHD [3]", "result": 41, "unit": "subjects"}, {"measurement": "Decreased appetite, % of subjects", "setting": "adults with ADHD [3]", "result": "(12.0) %"}, {"measurement": "Decreased appetite, number of subjects", "setting": "adults with ADHD [3]", "result": 6, "unit": "subjects"}, {"measurement": "Diarrhea, % of subjects", "setting": "adults with ADHD [3]", "result": "(2.0) %"}, {"measurement": "Diarrhea, number of subjects", "setting": "adults with ADHD [3]", "result": 1, "unit": "subjects"}, {"measurement": "Dizziness, % of subjects", "setting": "adults with ADHD [3]", "result": "(8.0) %"}, {"measurement": "Dizziness, number of subjects", "setting": "adults with ADHD [3]", "result": 4, "unit": "subjects"}, {"measurement": "Dry mouth, % of subjects", "setting": "adults with ADHD [3]", "result": "(6.0) %"}, {"measurement": "Dry mouth, number of subjects", "setting": "adults with ADHD [3]", "result": 3, "unit": "subjects"}, {"measurement": "Fatigue, % of subjects", "setting": "adults with ADHD [3]", "result": "(12.0) %"}, {"measurement": "Fatigue, number of subjects", "setting": "adults with ADHD [3]", "result": 6, "unit": "subjects"}, {"measurement": "Feeling hot and cold, % of subjects", "setting": "adults with ADHD [3]", "result": "(6.0) %"}, {"measurement": "Feeling hot and cold, number of subjects", "setting": "adults with ADHD [3]", "result": 3, "unit": "subjects"}, {"measurement": "Feeling jittery, % of subjects", "setting": "adults with ADHD [3]", "result": "(6.0) %"}, {"measurement": "Feeling jittery, number of subjects", "setting": "adults with ADHD [3]", "result": 3, "unit": "subjects"}, {"measurement": "Headache, % of subjects", "setting": "adults with ADHD [3]", "result": "(14.0) %"}, {"measurement": "Headache, number of subjects", "setting": "adults with ADHD [3]", "result": 7, "unit": "subjects"}, {"measurement": "Influenza-like illness, % of subjects", "setting": "adults with ADHD [3]", "result": "(6.0) %"}, {"measurement": "Influenza-like illness, number of subjects", "setting": "adults with ADHD [3]", "result": 3, "unit": "subjects"}, {"measurement": "Lethargy, % of subjects", "setting": "adults with ADHD [3]", "result": "(6.0) %"}, {"measurement": "Lethargy, number of subjects", "setting": "adults with ADHD [3]", "result": 3, "unit": "subjects"}, {"measurement": "Muscle Strain, % of subjects", "setting": "adults with ADHD [3]", "result": "(0) %"}, {"measurement": "Muscle Strain, number of subjects", "setting": "adults with ADHD [3]", "result": 0, "unit": "subjects"}, {"measurement": "Nasal congestion, % of subjects", "setting": "adults with ADHD [3]", "result": "(4.0) %"}, {"measurement": "Nasal congestion, number of subjects", "setting": "adults with ADHD [3]", "result": 2, "unit": "subjects"}, {"measurement": "Nausea, % of subjects", "setting": "adults with ADHD [3]", "result": "(20.0) %"}, {"measurement": "Nausea, number of subjects", "setting": "adults with ADHD [3]", "result": 10, "unit": "subjects"}, {"measurement": "Parathesia, % of subjects", "setting": "adults with ADHD [3]", "result": "(10.0) %"}, {"measurement": "Parathesia, number of subjects", "setting": "adults with ADHD [3]", "result": 5, "unit": "subjects"}, {"measurement": "Sleep disturbances, % of subjects", "setting": "adults with ADHD [3]", "result": "(16.0) %"}, {"measurement": "Sleep disturbances, number of subjects", "setting": "adults with ADHD [3]", "result": 8, "unit": "subjects"}, {"measurement": "Somnolence, % of subjects", "setting": "adults with ADHD [3]", "result": "(8.0) %"}, {"measurement": "Somnolence, number of subjects", "setting": "adults with ADHD [3]", "result": 4, "unit": "subjects"}, {"measurement": "Upper RTI, % of subjects", "setting": "adults with ADHD [3]", "result": "(4.0) %"}, {"measurement": "Upper RTI, number of subjects", "setting": "adults with ADHD [3]", "result": 2, "unit": "subjects"}, {"measurement": "Vomiting, % of subjects", "setting": "adults with ADHD [3]", "result": "(2.0) %"}, {"measurement": "Vomiting, number of subjects", "setting": "adults with ADHD [3]", "result": 1, "unit": "subjects"}, {"measurement": "AISRS Hyperactivity Score, mean difference from placebo", "setting": "adults with ADHD [4]; day 28, completers", "result": "−3.29 (−5.4, −1.2)"}, {"measurement": "AISRS Inattention Score, mean difference from placebo", "setting": "adults with ADHD [4]; day 28, completers", "result": "−3.81 (−6.1, −1.6)"}, {"measurement": "AISRS Total Score, mean difference from placebo", "setting": "adults with ADHD [4]; day 28, completers", "result": "−7.18 (−11.5, −2.9)"}, {"measurement": "CAARS:Self ADHD Index, mean difference from placebo", "setting": "adults with ADHD [4]; day 28, completers", "result": "−3.08 (−4.8, −1.3)"}, {"measurement": "CAARS:Self Hyperactivity Score, mean difference from placebo", "setting": "adults with ADHD [4]; day 28, completers", "result": "−1.43 (−2.4, −0.5)"}, {"measurement": "CAARS:Self Impulsivity Score, mean difference from placebo", "setting": "adults with ADHD [4]; day 28, completers", "result": "−1.17 (−1.9, −0.5)"}, {"measurement": "CAARS:Self Inattention/Memory Score, mean difference from placebo", "setting": "adults with ADHD [4]; day 28, completers", "result": "−1.56 (−2.5, −0.6)"}, {"measurement": "CAARS:Self Problem with Self-concept Score, mean difference from placebo", "setting": "adults with ADHD [4]; day 28, completers", "result": "−0.70 (−1.5, 0.1)"}, {"measurement": "CAARS:Self Total Score, mean difference from placebo", "setting": "adults with ADHD [4]; day 28, completers", "result": "−7.12 (−10.9, −3.3)"}, {"measurement": "CGI-ADHD-S, mean difference from placebo", "setting": "adults with ADHD [4]; day 28, completers", "result": "−0.45 (−0.8, −0.1)"}, {"measurement": "CAARS:Inv ADHD Index, mean difference from placebo", "setting": "adults with ADHD [4]; day 28, completers N = 40", "result": "−3.00 (−4.9, −1.1)"}, {"measurement": "CAARS:Inv Hyperactive/Impulsive subscale score, mean difference from placebo", "setting": "adults with ADHD [4]; day 28, completers N = 40", "result": "−1.43 (−2.4, −0.4)"}, {"measurement": "CAARS:Inv Inattentive subscale score, mean difference from placebo", "setting": "adults with ADHD [4]; day 28, completers N = 40", "result": "−3.89 (−6.3. −1.5)"}, {"measurement": "CAARS:Inv Total Score, mean difference from placebo", "setting": "adults with ADHD [4]; day 28, completers N = 40", "result": "−7.98 (−12.5. −3.5)"}]}
